This note sets out measurements from patent US20130158264A1, “Polymorphs of OSI-906” (priority 2010, published 2013).

Type in all cases: physicochemical
Data set [1] can be described thus: Gravimetric moisture sorption. The conditions noted are these: for water adsorbed: 25° C.; for XRPD form of the dried solid following moisture sorption analysis: dried at 60° C./0% RH after the experiment; for stability upon desorption (loss of water): humidity reduced below 15%. As to the method: Gravimetric Moisture Sorption: Gravimetric moisture sorption experiments were carried out on selected materials by first drying the sample at 40% RH and 25° C. until an equilibrium weight was reached or for a maximum of four hours. The sample was then subjected to an isothermal (25° C.) adsorption scan from 40 to 90% RH in steps of 10%. The sample was allowed to equilibrate to an asymptotic weight at each point for a maximum of four hours. Following adsorption, a desorption scan from 85 to 0% RH (at 25° C.) was run in steps of −10% again allowing a maximum of four hours for equilibration to an asymptotic weight. An adsorption scan was then performed from 0% RH to 40% RH in steps of +10% RH. The sample was then dried for 1-2 hours at 60° C. and the resulting solid analyzed by XRPD.

Data set [2] is described as follows: Slurry experiments (form conversion by XRPD). As to the method:
Slurry Experiments: Approximately 20-50 mg of select crystalline forms were weighed to individual 8 mL vials equipped with a magnetic stir bar. Either THF, water, EtOH, (80:20) EtOH:Water or IPA was added to obtain a free flowing slurry. After 3, 5, 7 and 11 days of equilibration at 50° C. or ambient temperature, solid from each slurry was recovered by centrifuge filtration through 0.45 μm nylon filters. The isolated solids were analyzed by XRPD to check for form conversion. […] (Table 22).

Data set [3] in a line: Additional experiments to isolate OSI-906 solid forms (desiccant storage, exposure to lab humidity). The protocol:
Form C was confirmed to be a monohydrate of OSI-906 by gravimetric moisture sorption analysis. The solid form adsorbed approximately 4.2 wt % water at 30% RH which is consistent with the theoretical water content (4.1 wt %) of a monohydrate of OSI-906 (See FIG. 47). Upon desorption, hysteresis was observed between 25% RH and 5% RH. […] Based on these findings, an additional experiment was conducted in an effort to isolate this new crystalline form. An XRPD substrate containing Form C was placed in a desiccator at room temperature. After overnight storage, the slide was analyzed immediately by XRPD upon removal from the environment and brief exposure (<10 min) to the lab humidity (40-50% RH).

The nature of data set [4]: DSC isothermal hold at 105° C. followed by XRPD. Conditions: held at 105° C. for five minutes. As to the method:
Differential Scanning Calorimetry Analysis:
Differential scanning calorimetry (DSC) analyses were carried out on the samples “as is”. Samples were weighed in an aluminum pan, covered with a pierced lid, and then crimped. Analysis conditions were 30-105, 30-300, 30-350° C. at 10° C./min. In addition, isothermal holds were performed for a duration of five minutes at 105° C. and 200° C.
(See FIG. 49). In an effort to elucidate the additional thermal events, additional DSC experiments were conducted. Form C was held at 105° C. for five minutes, cooled to room temperature and then reheated to the same temperature. […] The isothermal hold experiment was repeated and the sample then exposed to the lab environment (˜40-50% RH) overnight. […] These observations are consistent with the results previously presented following storage of Form C under desiccant conditions.

A short description of data set [5]: Solid-state stability under storage conditions (XRPD). As to the method: Solid-State Stability: Approximately 50 mg of Form A or Forms C+D were weighed to individual 8 mL vials and placed uncapped in the following storage conditions: 40° C. under vacuum, 80° C. under vacuum, desiccant, 25° C./60% RH and 40° C./75% RH. […] (Table 21). To assess the stability of Form A, the solid form was stored at different environmental conditions as described herein. Approximately 50 mg of Form A was weighed to 8 mL vials and placed uncapped in the following storage conditions: 40° C. under vacuum, 80° C. under vacuum, desiccant, 25° C./60% RH and 40° C./75% RH. After 24 hours and seven days of equilibration the solids were analyzed by XRPD. (See Table 21).

Data set [6] in a line: Thermal stress experiments (Forms B, D, E, and F) in vacuum oven. The protocol: Thermal Stress Experiments (Forms B, D, E, and F)
Solids were stressed under different temperature (40° C. or 80° C.) in a vacuum oven for a measured time period.

Setting [7] is: (80:20) EtOH:Water, prolonged equilibration at ambient and elevated temperature.
Setting [8] is: water, prolonged equilibration at ambient and elevated temperature.

“Also recorded” adds a separate entry of the source.

In the case of `CC1(O)CC(c2nc(-c3ccc4ccc(-c5ccccc5)nc4c3)c3c(N)nccn23)C1` (stereo not drawn) [Form A, cis-3-[8-amino-1-(2-phenyl-quinolin-7-yl)-imidazo[1,5-a]pyrazin-3-yl]-1-methylcyclobutanol], in data set [1], the “hygroscopicity by gravimetric moisture sorption analysis” value is recorded as “non-hygroscopic” and the “XRPD form of the dried solid following moisture sorption analysis” value is “consistent with the initial form”. The water adsorbed in data set [1] (60% RH) is on record as 0.2 wt %. This compound also came in with a water adsorbed in data set [1] (90% RH) of 0.3 wt %.

On to `CC1(O)CC(c2nc(-c3ccc4ccc(-c5ccccc5)nc4c3)c3c(N)nccn23)C1` (stereo not drawn) [Form C, cis-3-[8-amino-1-(2-phenyl-quinolin-7-yl)-imidazo[1,5-a]pyrazin-3-yl]-1-methylcyclobutanol], for which the water adsorbed entry in data set [1] (30% RH) is listed as “approximately 4.2 wt %”. Moreover, the “XRPD form of the dried solid following moisture sorption analysis” value in data set [1] is “mixture of Form C and an unidentified crystalline form; also recorded: mixture of Forms C+I”. The “stability upon desorption (loss of water)” value in data set [1] was “not stable”. The “form stability in slurry” value in data set [2] (setting [7]) is “stable”; in data set [2] (EtOH, ambient temperature) it was “exhibiting stability”; in data set [2] (EtOH, elevated temperature), “conversion to Forms A or E”; in data set [2] (IPA), “conversion to Form A”; in data set [2] (THF), “conversion to Form A”; in data set [2] (setting [8]), “stable”. Moreover, the “XRPD form after slurry” value in data set [2] (THF, room temperature, 11 day) is on record as “Form A”. Further, the “XRPD form after desiccant storage” value in data set [3] (overnight in a desiccator at room temperature) is recorded as “Form I”. Also, the “XRPD form after DSC isothermal hold” value in data set [4] is given as “indicative of Form C”.

`CC1(O)CC(c2nc(-c3ccc4ccc(-c5ccccc5)nc4c3)c3c(N)nccn23)C1` (stereo not drawn) [Form D, cis-3-[8-amino-1-(2-phenyl-quinolin-7-yl)-imidazo[1,5-a]pyrazin-3-yl]-1-methylcyclobutanol]: the water adsorbed entry in data set [1] (60% RH) is listed as “approximately 3.9 wt %”. Also, in data set [1], the “XRPD form of the dried solid following moisture sorption analysis” value was “mixture of Forms C and D”. For the same compound, the “stability upon desorption (loss of water)” value in data set [1] is recorded as “not stable”. Besides, the “solid-state stability (summary in words)” value is “exhibited stability” in data set [5] (one and seven days at 25° C./60% RH, 40° C./75% RH and under desiccant conditions); “conversion to Form C” in data set [5] (one and seven days at elevated temperature drying conditions (40° C. or 80° C. under vacuum)). Further, the “form stability in slurry” value in data set [2] (setting [7]) is recorded as “conversion to Form C”; in data set [2] (EtOH, ambient temperature), “Form C”; in data set [2] (EtOH, elevated temperature), “converting to either Form A or E”; in data set [2] (IPA) it was “conversion to Form A”; in data set [2] (THF), “conversion to Form A”; in data set [2] (setting [8]), “stable”. Moreover, the “XRPD Result after thermal stress” value in data set [6] (40° C., 3 d) was “Form C”.

On to `CC1(O)CC(c2nc(-c3ccc4ccc(-c5ccccc5)nc4c3)c3c(N)nccn23)C1` (stereo not drawn) [Form F, cis-3-[8-amino-1-(2-phenyl-quinolin-7-yl)-imidazo[1,5-a]pyrazin-3-yl]-1-methylcyclobutanol], for which the “XRPD Result after thermal stress” value in data set [6] (40° C., 3 d) is “Form C”; in data set [6] (80° C., overnight), “Form C”.

Take `CC1(O)CC(c2nc(-c3ccc4ccc(-c5ccccc5)nc4c3)c3c(N)nccn23)C1` (stereo not drawn) [Form I, cis-3-[8-amino-1-(2-phenyl-quinolin-7-yl)-imidazo[1,5-a]pyrazin-3-yl]-1-methylcyclobutanol]: the “XRPD form after exposure to lab humidity” value in data set [3] (1 hour, lab humidity 40-50% RH) is “conversion to Form C”.
